According to US20110076332A1, “Dextran-chitosan based in-situ gelling hydrogels for biomedical applications” (priority 2009, published 2011):

System: Staphylococcus aureus (S. aureus)
Experiment: Bacterial attachment and biofilm formation on hydrogels in 96-well plates, MTS assay
Format: cell-based
Details: whether or not a hydrogel was present
Protocol: Determination of bacteriostatic action against S. Aureus bacteria: Staphylococcus aureus (S. aureus) was used to study the resistance of selected dextran-chitosan hydrogels of the present invention to bacterial attachment and biofilm formation. Six different types of gels, having different chitosan-to-dextran ratios, proteins and bactericidal drugs, with six replicates each, were prepared in 96-well plates under sterile conditions. FIG. 18 is a bar chart showing the relative extent of bacterial growth, as estimated by MTS assay, for the various cases studied.
The chitosan and dextran solutions used in this study were prepared as described above. With reference to the labels used in FIG. 17, hydrogels were prepared with chitosan-dextran ratios of 1:1 (“1:1”), 2:1 (“2:1”) and 3:1 (“3:1”). Wells with chitosan sheets alone (“CS”), empty wells (“10̂8”), wells with vancomycin alone (“10̂8+VMC”) and wells with PBS alone (“PBS”) were used as controls. Additional hydrogels having chitosan-dextran ratios of 2:1 were prepared with fibronectin (“2:1+FN”), vancomycin (“2:1+VMC”) or both (“2:1+FN+VMC”) were also studied to understand the effect of drug loading and release on bacterial colony formation.
For the study, triplicate plates of each combination were seeded with S. aureus at a concentration of 1.0×10^8 bacteria/ml. The bacteria were allowed to attach and grow overnight (16 hours). […]

Q: For `CN[C@H](CC(C)C)C(=O)N[C@H]1C(=O)N[C@@H](CC(N)=O)C(=O)N[C@H]2C(=O)N[C@H]3C(=O)N[C@H](C(=O)N[C@H](C(=O)O)c4cc(O)cc(O)c4-c4cc3ccc4O)[C@H](O)c3ccc(c(Cl)c3)Oc3cc2cc(c3O[C@@H]2O[C@H](CO)[C@@H](O)[C@H](O)[C@H]2O[C@H]2C[C@](C)(N)[C@H](O)[C@H](C)O2)Oc2ccc(cc2Cl)[C@H]1O` [vancomycin], which bacterial colony formation is on record?
A: reduced bacterial colony formation
